{"source": "paper PMC7230162", "about": "“Syntheses and Glycosidase Inhibitory Activities, and in Silico Docking Studies of Pericosine E Analogs Methoxy-Substituted at C6” (Marine Drugs, 2020)", "key": {"[1]": {"molecular_target": "β-glucosidase (Sweet Almond)", "assay": "β-glucosidase inhibitory activity assay (p-nitrophenyl-β-D-glucopyranoside)", "format": "biochemical", "method": "(§1) Infrared (IR) spectra were recorded on a 1720X Fourier transformation-infrared (FT-IR) spectrometer (Perkin Elmer, MA, USA) or an IRAffinity-1S FT-IR spectrometer (Shimadzu, Kyoto, Japan). High-resolution mass spectra (HRMS) were recorded on a JMS-700 (2) mass spectrometer (JEOL, Tokyo, Japan). Nuclear magnetic resonance (NMR) spectra were recorded at 27 °C on 400-MR-DD2 (Agilent Technologies, CA, USA) and 600-DD2 (Agilent Technologies, CA, USA) instruments in CDCl3 or acetone-d6 using tetramethylsilane as an internal standard. Specific rotations were measured with a JASCO P-2300 spectrometer (JASCO Co., Tokyo, Japan). Liquid column chromatography was conducted on silica gel (Fuji Silysia FL-60D). Analytical thin layer chromatography (TLC) was performed on Silicagel 70 F254 plates (Wako Pure Chemical Industries, Tokyo, Japan), and compounds were detected by dipping the plates into an ethanolic solution of phosphomolybdic acid followed by heating. Microwave (MW)-aided reactions were carried out in a Biotage Initiator® reactor (PartnerTech Atvidaberg AB for Biotage Sweden AB, Uppsala, Sweden). NaBH4 and trifluoroacetic acid (TFA) were purchased from Wako Pure Chemical Industries (Wako Pure Chemical Industries, Tokyo, Japan). BF3·Et2O was purchased from Sigma-Aldrich Co., LLC (St. Lewis, MO, USA). DMP was purchased from TCI (Tokyo Chemical Industry Co., Ltd., Tokyo, Japan). […] Deoxygalactonojirimycin was purchased from Funakoshi Co., Ltd., Tokyo, Japan).\n(§2) After 20 min incubation at 37 °C, the reaction was quenched by addition of Na2CO3 solution (0.5 M, 100 μL). The amount of liberated p-nitrophenol was measured colorimetrically at 400 nm (optical density at 400 nm: ODtest).\nAssays of β-glucosidase, α-mannosidase, β-mannosidase, and β-galactosidase inhibitory activities were carried out as above using p-nitrophenyl-β-D-glucopyranoside, p-nitrophenyl-α-D-mannopyranoside, p-nitrophenyl-β-D-mannopyranoside, and p-nitrophenyl-β-D-galactopyranoside as substrates."}, "α-glucosidase (Yeast) [2]": {"molecular_target": "T1, α-glucosidase (Yeast) (Saccharomyces cerevisiae, UniProt P53341)", "T1 sequence (P53341 whole entry)": "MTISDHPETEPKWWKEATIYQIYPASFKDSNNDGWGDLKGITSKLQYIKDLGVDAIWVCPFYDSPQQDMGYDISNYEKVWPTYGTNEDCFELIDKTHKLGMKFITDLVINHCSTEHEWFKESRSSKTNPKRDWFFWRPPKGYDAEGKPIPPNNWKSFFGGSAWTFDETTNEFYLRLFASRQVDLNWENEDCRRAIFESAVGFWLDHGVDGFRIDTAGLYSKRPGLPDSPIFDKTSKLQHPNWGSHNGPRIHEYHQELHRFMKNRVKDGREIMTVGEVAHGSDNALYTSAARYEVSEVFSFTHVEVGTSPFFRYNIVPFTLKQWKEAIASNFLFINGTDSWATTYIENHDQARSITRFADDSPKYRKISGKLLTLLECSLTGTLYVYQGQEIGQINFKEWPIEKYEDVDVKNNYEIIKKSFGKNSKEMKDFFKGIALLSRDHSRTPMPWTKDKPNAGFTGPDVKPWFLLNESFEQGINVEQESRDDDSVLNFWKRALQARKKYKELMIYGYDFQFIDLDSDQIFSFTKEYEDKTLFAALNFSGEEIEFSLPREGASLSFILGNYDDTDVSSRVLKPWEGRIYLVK", "assay": "α-glucosidase inhibitory activity assay (p-nitrophenyl-α-D-glucopyranoside)", "format": "biochemical", "excerpt": "(§3) The synthesized compounds were subjected to glycosidase inhibitory activity assays (Table 1). Herein, α-galactosidase (from green coffee bean) and β-galactosidase (from bovine lever) were used in addition to the three previously employed glycosidases (α-glucosidase, β-glucosidase, and α-mannosidase). To facilitate comparison across studies, we used the same batches of the three abovementioned glycosidases as those employed before. Some compounds were not tested against all five enzymes because of the limited amount of materials.\nas §1, §2"}, "[3]": {"molecular_target": "β-glucosidase (Sweet Almond)", "set-up": "method as in PMID 28124983", "settings": "values of a previous work; cited from earlier work"}, "[4]": {"molecular_target": "T2, α-mannosidase (Jack Bean) (Canavalia ensiformis, UniProt C0HJB3)", "T2 construct": "purchased Sigma-Aldrich Co., LLC lot 055K7047 (catalogue number not given)", "T2 sequence (C0HJB3 1-562)": "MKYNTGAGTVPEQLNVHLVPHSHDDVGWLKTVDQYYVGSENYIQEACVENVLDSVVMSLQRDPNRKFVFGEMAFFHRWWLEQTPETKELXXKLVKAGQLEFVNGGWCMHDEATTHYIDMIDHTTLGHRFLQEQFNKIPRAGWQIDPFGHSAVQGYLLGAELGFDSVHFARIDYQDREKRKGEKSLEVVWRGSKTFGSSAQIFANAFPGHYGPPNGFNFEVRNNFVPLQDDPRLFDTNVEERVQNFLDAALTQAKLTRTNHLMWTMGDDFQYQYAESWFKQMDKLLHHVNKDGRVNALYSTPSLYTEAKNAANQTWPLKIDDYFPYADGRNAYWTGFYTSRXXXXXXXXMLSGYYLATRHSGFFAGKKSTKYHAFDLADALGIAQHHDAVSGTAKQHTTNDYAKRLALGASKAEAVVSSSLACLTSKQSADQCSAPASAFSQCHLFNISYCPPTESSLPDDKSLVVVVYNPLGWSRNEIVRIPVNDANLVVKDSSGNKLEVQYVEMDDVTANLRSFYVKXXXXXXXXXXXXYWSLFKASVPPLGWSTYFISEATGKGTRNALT", "T2 sequence (C0HJB3 563-981)": "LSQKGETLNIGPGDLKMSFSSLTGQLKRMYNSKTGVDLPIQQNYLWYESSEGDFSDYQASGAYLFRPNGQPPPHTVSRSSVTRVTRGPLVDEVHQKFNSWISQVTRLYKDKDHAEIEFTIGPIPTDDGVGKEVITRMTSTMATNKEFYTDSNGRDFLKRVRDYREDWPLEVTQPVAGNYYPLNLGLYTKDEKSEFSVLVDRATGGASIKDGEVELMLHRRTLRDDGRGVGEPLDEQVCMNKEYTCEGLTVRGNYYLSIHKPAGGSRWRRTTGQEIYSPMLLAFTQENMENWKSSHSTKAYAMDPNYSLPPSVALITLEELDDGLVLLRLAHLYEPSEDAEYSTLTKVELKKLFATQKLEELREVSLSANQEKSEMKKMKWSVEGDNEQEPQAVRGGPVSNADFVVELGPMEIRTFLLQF", "settings": "read-out: IC50 (M) α-mannosidase (Jack Bean); values of a previous work; cited from earlier work"}, "[5]": {"molecular_target": "T3, β-galactosidase (Bovine Liver) (Bos taurus, UniProt Q58D55)", "T3 sequence (Q58D55 28-653)": "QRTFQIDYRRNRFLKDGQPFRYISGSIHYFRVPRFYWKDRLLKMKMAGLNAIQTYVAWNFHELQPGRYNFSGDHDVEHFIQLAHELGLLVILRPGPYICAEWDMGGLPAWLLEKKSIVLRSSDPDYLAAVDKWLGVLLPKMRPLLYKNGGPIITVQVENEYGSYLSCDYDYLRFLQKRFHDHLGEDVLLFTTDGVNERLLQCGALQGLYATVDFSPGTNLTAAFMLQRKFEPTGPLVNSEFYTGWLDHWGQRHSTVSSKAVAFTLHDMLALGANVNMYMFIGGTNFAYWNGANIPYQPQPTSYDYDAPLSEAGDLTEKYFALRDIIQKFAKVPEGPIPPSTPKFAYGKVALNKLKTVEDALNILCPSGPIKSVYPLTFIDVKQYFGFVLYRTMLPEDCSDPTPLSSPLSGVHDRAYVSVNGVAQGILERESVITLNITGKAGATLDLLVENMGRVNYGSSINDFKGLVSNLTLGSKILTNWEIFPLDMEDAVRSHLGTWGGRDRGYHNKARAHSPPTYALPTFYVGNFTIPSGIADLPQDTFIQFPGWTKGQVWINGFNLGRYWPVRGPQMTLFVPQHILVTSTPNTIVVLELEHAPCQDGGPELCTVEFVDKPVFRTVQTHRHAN", "assay": "β-galactosidase inhibitory activity assay (p-nitrophenyl-β-D-galactopyranoside)", "format": "biochemical", "excerpt": "as §3\nInfrared (IR) spectra were recorded on a 1720X Fourier transformation-infrared (FT-IR) spectrometer (Perkin Elmer, MA, USA) or an IRAffinity-1S FT-IR spectrometer (Shimadzu, Kyoto, Japan). High-resolution mass spectra (HRMS) were recorded on a JMS-700 (2) mass spectrometer (JEOL, Tokyo, Japan). Nuclear magnetic resonance (NMR) spectra were recorded at 27 °C on 400-MR-DD2 (Agilent Technologies, CA, USA) and 600-DD2 (Agilent Technologies, CA, USA) instruments in CDCl3 or acetone-d6 using tetramethylsilane as an internal standard. Specific rotations were measured with a JASCO P-2300 spectrometer (JASCO Co., Tokyo, Japan). […]\nAfter 20 min incubation at 37 °C, the reaction was quenched by addition of Na2CO3 solution (0.5 M, 100 μL). The amount of liberated p-nitrophenol was measured colorimetrically at 400 nm (optical density at 400 nm: ODtest). […]"}, "α-glucosidase (Yeast) [6]": {"molecular_target": "T1, α-glucosidase (Yeast)", "settings": "cited from earlier work; for IC50: values of a previous work"}}, "note": "Where two headings read alike, the source gives them in different places."}
{"smiles": "COC(=O)C1=CC(O)C(O)C(O)C1OC1C(OC)C(C(=O)OC)=CC(O)C1O", "note": "(single isomer, unassigned; (+)) [(+)-6]", "values": [{"measurement": "IC50", "setting": "[1]", "value": "[…]"}, {"measurement": "α-glucosidase inhibitory activity (in words)", "setting": "α-glucosidase (Yeast) [2]", "value": "moderately inhibited"}]}
{"smiles": "COC(=O)C1=CC(O)C(O)C(OC2C(C(=O)OC)=CC(O)C(O)C2O)C1Cl", "note": "(single isomer, unassigned; (-)) [(−)-5]", "values": [{"measurement": "IC50", "setting": "[3]", "value": "> 7.8", "unit": "mM"}, {"measurement": "IC50", "setting": "[4]", "value": "> 0.0078", "unit": "M"}]}
{"smiles": "COC(=O)C1=CC(O)C(O)C(O)C1OC1C(OC)C(C(=O)OC)=CC(O)C1O", "note": "(single isomer, unassigned; (-)) [(−)-7]", "values": [{"measurement": "IC50", "setting": "[1]", "value": "[…]"}, {"measurement": "α-glucosidase inhibitory activity (in words)", "setting": "α-glucosidase (Yeast) [2]", "value": "moderately inhibited"}]}
{"smiles": "COC(=O)C1=CC(O)C(O)C(O)C1OC1C(OC)C(C(=O)OC)=CC(O)C1O", "note": "(single isomer, unassigned; (-)) [(−)-8]", "values": [{"measurement": "IC50", "setting": "[1]", "value": "[…]"}, {"measurement": "α-glucosidase inhibitory activity (in words)", "setting": "α-glucosidase (Yeast) [2]", "value": "moderately inhibited"}]}
{"smiles": "COC(=O)C1=CC(O)C(O)C(O)C1OC1C(OC)C(C(=O)OC)=CC(O)C1O", "note": "(single isomer, unassigned; (-)) [(−)-24]", "values": [{"measurement": "IC50", "setting": "[1]", "value": "[…]"}, {"measurement": "α-glucosidase inhibitory activity (in words)", "setting": "α-glucosidase (Yeast) [2]", "value": "moderately inhibited"}, {"measurement": "β-galactosidase inhibitory activity (in words)", "setting": "[5]", "value": "showed β-galactosidase inhibitory activities"}]}
{"smiles": "COC(=O)C1=C[C@H](O)[C@H](O)[C@H](O[C@H]2C(C(=O)OC)=C[C@@H](O)[C@@H](O)[C@H]2O)[C@H]1Cl", "note": "[(+)-4, (+)-pericosine E]", "values": [{"measurement": "α-glucosidase inhibitory activity (in words)", "setting": "α-glucosidase (Yeast) [6]", "value": "potent activity"}, {"measurement": "IC50", "setting": "α-glucosidase (Yeast) [6]", "value": 0.031, "unit": "mM"}, {"measurement": "IC50", "setting": "[3]", "value": "> 7.8", "unit": "mM"}, {"measurement": "IC50", "setting": "[4]", "value": "> 0.0078", "unit": "M"}]}
{"smiles": "COC(=O)C1=C[C@@H](O)[C@@H](O)[C@@H](O[C@@H]2C(C(=O)OC)=C[C@H](O)[C@H](O)[C@@H]2O)[C@@H]1Cl", "note": "[(−)-4, (−)-pericosine E]", "values": [{"measurement": "IC50", "setting": "α-glucosidase (Yeast) [6]", "value": 1.5, "unit": "mM"}, {"measurement": "IC50", "setting": "[3]", "value": "> 7.8", "unit": "mM"}, {"measurement": "IC50", "setting": "[4]", "value": "> 0.0078", "unit": "M"}]}
{"smiles": "OC[C@H]1NC[C@H](O)[C@@H](O)[C@H]1O", "note": "[Deoxygalactonojirimycin, reference compound]", "values": [{"measurement": "IC50", "setting": "[5]", "value": 0.14, "unit": "mM"}]}
